The values below come from US10800784B2, “Nitrogen-containing heterocyclic amide compound and pharmaceutical use thereof” (Japan Tobacco Inc., priority 2018, dated 2020).

Assay [1] addresses human PDHK1 (hPDHK1) (Homo sapiens (Human), UniProt Q15118). As to the kind of experiment: Inhibitory action of PDHK1 activity in vitro (residual PDH activity after PDHK reaction). Format: biochemical. Particulars: for IC50: PDH/hPDHK1 complex solution, PDHK reaction at room temperature for 45 min, NADH absorbance at 340 nm, read-out: hPDK1 IC50; for inhibition at 0.003 µM: at 3 nmol/L, shown when IC50 value could not be calculated, read-out: hPDHK1 inhibitory rate at the lowest concentration of the test compound. The procedure:
(§1) The inhibitory action of PDHK activity was assessed indirectly by measuring the residual PDH activity after PDHK reaction in the presence of a test compound.
(Inhibitory Action of PDHK1 Activity)
In the case of human PDHK1 (hPDHK1, NCBI Reference Database Accession number NM_002610.3), a 1.3 kbp fragment encoding this protein was isolated from human liver cDNA by polymerase chain reaction (PCR). Modified hPDHK1 cDNA wherein FLAG-Tag sequence was added to the N terminus was prepared by PCR and ligated to the NdeI/EcoRI site of pET-17b vector (Merck MGaA, model number 69663-3). The recombinant construct was transformed into Escherichia coli DH5a (TOYOBO, model number DNA-903). The recombinant clones were identified, and plasmid DNA was isolated and subjected to the DNA sequence analysis. One clone which had the expected nucleic acid sequence was selected for expression work.
For expression of hPDHK1 activity, Escherichia coli strain BL21(DE3) cells (Merck KGaA, model number 69450-4) were transformed with the pET17b vector containing modified hPDHK1 cDNA. The Escherichia coli were grown to an optical density 0.6 ([…]) at 30° C. Protein expression was induced by the addition of 500 μmol/L isopropyl-β-thiogalactopyranoside. The Escherichia coli were cultured at 20° C. for 17-18 hr and harvested by centrifugation.
The harvested Escherichia coli was resuspended in a suspension buffer (20 mmol/L N-(2-hydroxyethyl)piperazine-N′-2-ethanesulfonic acid-sodium hydroxide (HEPES-NaOH), 500 mmol/L sodium chloride, 1% ethylene glycol, and 0.1% polyoxyethylene-polyoxypropylene block copolymer (Pluronic F-68), complete, EDTA-free (pH 8.0)) and disrupted by a microfluidizer M-110H (MIZUHO INDUSTRIAL CO., LTD.) or ultrasonication. The precipitate was removed by centrifugation and the supernatant was added to DDDDK-tagged Protein PURIFICATION GEL (MBL, model number 3329). DDDDK-tagged Protein PURIFICATION GEL was washed with a washing buffer (20 mmol/L HEPES-NaOH, 500 mmol/L sodium chloride, 1% ethylene glycol, 0.1% pluronic F-68 (pH 8.0)) and the bound protein was eluted with elution buffer 1 (20 mmol/L HEPES-NaOH, 100 μg/mL peptide (amino acid sequence DYKDDDDK) (SEQ ID NO: 1), 500 mmol/L sodium chloride, 1% ethylene glycol, 0.1% pluronic F-68 (pH 8.0)).
The eluted fractions containing FLAG-Tagged protein were pooled, concentrated by an ultrafiltration method, added to a gel filtration column (HiLoad 26/60 Superdex 200 (GE Healthcare, model number 17-1070-01)), and eluted with elution buffer 2 (20 mmol/L HEPES-NaOH, 150 mmol/L sodium chloride, 0.5 mmol/L ethylenediaminetetraacetic acid (EDTA), 1% ethylene glycol, 0.1% pluronic F-68 (pH 8.0)). The eluted fractions were pooled and preserved at −80° C.
0.025 U/mL PDH (porcine heart PDH complex, Sigma P7032) and 0.5 μg/mL hPDHK1 were mixed in an assay buffer (50 mmol/L 3-morpholinopropanesulfonic acid (pH 7.0), 20 mmol/L dipotassium hydrogen phosphate, 60 mmol/L potassium chloride, 2 mmol/L magnesium chloride, 0.4 mmol/L EDTA, 0.2% poloxamer, 2 mmol/L dithiothreitol), and the mixture was incubated at 4° C. overnight to obtain a PDH/hPDHK1 complex solution. In the assay buffer, 0.025 U/mL PDH was mixed and incubated at 4° C. overnight to prepare a PDH solution.
The test compounds were diluted with dimethyl sulfoxide (DMSO). To measure an inhibitory action of the test compound on the PDHK activity in the PDH/hPDHK1 complex solution, PDH/hPDHK1 complex solution (20 μL), test compound (1.5 μL) and 0.353 μmol/L ATP (diluted with assay buffer) (8.5 μL) were added to a 384 well microplate (Greiner Bio-One 781801) and PDHK reaction was performed at room temperature for 45 min (test compound well). DMSO (1.5 μL) was added to control wells instead of test compound. In addition, DMSO (1.5 μL) was added to blank wells instead of the test compound, and PDH solution was added instead of the PDH/hPDHK1 complex solution. […]

In assay [2] the target is human PDHK2 (hPDHK2) (Homo sapiens (Human), UniProt Q15119). As to the kind of experiment: Inhibitory action of PDHK2 activity in vitro (residual PDH activity after PDHK reaction). Conditions: for IC50: PDH/hPDHK2 complex solution, PDHK reaction at room temperature for 45 min, NADH absorbance at 340 nm, read-out: kPDK2 IC50. Format: biochemical. How it is done:
as §1
(Inhibitory Action of PDHK2 Activity)
In the case of human PDHK2 (hPDHK2, NCBI Reference Database Accession number NM_002611.4), modified hPDHK2 cDNA wherein FLAG-Tag sequence was added to the N terminus of hPDHK2 cDNA clone (pReceiver-M01/PDK2-GeneCopoeia) as the base was prepared by PCR and ligated to the NdeI/EcoRI site of pET-17b vector. The recombinant construct was transformed into Escherichia coli DH5a. The recombinant clones were identified, and plasmid DNA was isolated and subjected to the DNA sequence analysis. One clone which had the expected nucleic acid sequence was selected for expression work.
For expression of hPDHK2 activity, Escherichia coli strain BL21(DE3) cells were transformed with the pET17b vector containing modified hPDHK2 cDNA. The Escherichia coli were grown to an optical density 0.6 ([…]) at 30° C. Protein expression was induced by the addition of 500 μmol/L isopropyl-β-thiogalactopyranoside. The Escherichia coli were cultured at 20° C. for 17-18 hr and harvested by centrifugation. The harvested Escherichia coli was resuspended in a suspension buffer (20 mmol/L HEPES-NaOH, 500 mmol/L sodium chloride, 1% ethylene glycol, 0.1% pluronic F-68 (pH 8.0), cOmplete, EDTA-free (pH 8.0)), and disrupted by a microfluidizer. The precipitate was removed by centrifugation and the supernatant was added to DDDDK-tagged Protein PURIFICATION GEL. DDDDK-tagged Protein PURIFICATION GEL was washed with a washing buffer (20 mmol/L HEPES-NaOH, 500 mmol/L sodium chloride, 1% ethylene glycol, 0.1% pluronic F-68 (pH 8.0)) and the bound protein was eluted with elution buffer 1 (20 mmol/L HEPES-NaOH, 100 μg/mL peptide (amino acid sequence DYKDDDDK) (SEQ ID NO: 1), 500 mmol/L sodium chloride, 1% ethylene glycol, 0.1% pluronic F-68 (pH 8.0)). The eluted fractions containing FLAG-Tagged protein were pooled, concentrated by an ultrafiltration method, added to a gel filtration column (HiLoad 26/60 Superdex 200), and eluted with elution buffer 2 (20 mmol/L HEPES-NaOH, 150 mmol/L sodium chloride, 0.5 mmol/L ethylenediaminetetraacetic acid (EDTA), 1% ethylene glycol, 0.1% pluronic F-68 (pH 8.0)). The eluted fractions were pooled and preserved at −80° C.
0.025 U/mL PDH and 0.5 μg/mL hPDHK2 were mixed in an assay buffer (50 mmol/L 3-morpholinopropanesulfonic acid (pH 7.0), 20 mmol/L dipotassium hydrogen phosphate, 60 mmol/L potassium chloride, 2 mmol/L magnesium chloride, 0.4 mmol/L EDTA, 0.2% poloxamer, 2 mmol/L dithiothreitol), and the mixture was incubated at 4° C. overnight to obtain a PDH/hPDHK2 complex solution. In the assay buffer, 0.025 U/mL PDH was mixed and incubated at 4° C. overnight to prepare a PDH solution.
The test compounds were diluted with DMSO. To measure an inhibitory action of the test compound on the PDHK activity in the PDH/hPDHK2 complex solution, PDH/hPDHK2 complex solution (20 μL), test compound (1.5 μL) and 1.06 μmol/L ATP (diluted with assay buffer) (8.5 μL) were added to a 384 well microplate and PDHK reaction was performed at room temperature for 45 min (test compound well). DMSO (1.5 μL) was added to control wells instead of test compound. In addition, DMSO (1.5 μL) was added to blank wells instead of the test compound, and PDH solution was added instead of the PDH/hPDHK2 complex solution. To measure an inhibitory action of the test compound on the PDHK activity inherent in the PDH solution, a test compound was added and the PDH solution instead of the PDH/hPDHK2 complex solution was added to a blank+test compound well.
Then, 10 μL of substrates (5 mmol/L sodium pyruvate, 5 mmol/L Coenzyme A, 12 mmol/L NAD, 5 mmol/L thiamine pyrophosphate, diluted with assay buffer) were added. The mixture was incubated at room temperature for 90 min, and the residual PDH activity was measured. […]

human PDHK1 (hPDHK1), sequence (Q15118 29-436): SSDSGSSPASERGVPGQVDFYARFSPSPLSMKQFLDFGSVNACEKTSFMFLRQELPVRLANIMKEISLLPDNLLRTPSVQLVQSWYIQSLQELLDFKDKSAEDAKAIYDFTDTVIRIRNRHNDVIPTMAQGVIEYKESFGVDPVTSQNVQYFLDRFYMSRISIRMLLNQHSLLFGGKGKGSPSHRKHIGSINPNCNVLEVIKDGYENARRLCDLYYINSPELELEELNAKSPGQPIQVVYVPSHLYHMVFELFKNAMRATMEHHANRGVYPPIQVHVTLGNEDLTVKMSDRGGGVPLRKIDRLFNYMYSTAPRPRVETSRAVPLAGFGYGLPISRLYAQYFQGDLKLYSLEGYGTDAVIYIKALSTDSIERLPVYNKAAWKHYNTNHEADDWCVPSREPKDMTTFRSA

Turning to `C[C@H]1CN(C(=O)c2c3cc(F)ccc3nn2C)Cc2cnc([C@@](C)(O)C(F)(F)F)n21` [Example 1], the IC50 – broadly, the concentration that inhibits the measured activity by half – in assay [1] was determined as 6 nM; in assay [2] it was 5 nM.

Consider `C[C@H]1CN(C(=O)c2nc3ccc(F)cc3o2)Cc2cnc([C@@](C)(O)C(F)(F)F)n21` [Example 2], for which the IC50 stood at 12 nM in assay [1] and 15 nM in assay [2].

On to `C[C@H]1CN(C(=O)C2Cc3ccccc3C2)Cc2cnc([C@@](C)(O)C(F)(F)F)n21` [Example 3, (2,3-dihydro-1H-inden-2-yl)((S)-5-methyl-3-((R)-1,1,1-trifluoro-2-hydroxypropan-2-yl)-5,6-dihydroimidazo[1,5-a]pyrazin-7(8H)-yl)methanone], for which the concentration for half-maximal inhibition (IC50) in assay [1] stood at 16 nM; in assay [2], 14 nM.

Turning to `C[C@H]1CN(C(=O)c2c3ccc(C#N)cc3nn2C)Cc2cnc([C@@](C)(O)C(F)(F)F)n21` [Example 4, 2-methyl-3-((S)-5-methyl-3-((R)-1,1,1-trifluoro-2-hydroxypropan-2-yl)-5,6,7,8-tetrahydroimidazo[1,5-a]pyrazine-7-carbonyl)-2H-indazole-6-carbonitrile], the IC50 in assay [1] turned out to be 4 nM; in assay [2] it was 5 nM.

In the case of `C[C@H]1CN(C(=O)c2nn(C)c3cc(C#N)ccc23)Cc2cnc([C@@](C)(O)C(F)(F)F)n21` [Example 5, 1-methyl-3-((S)-5-methyl-3-((R)-1,1,1-trifluoro-2-hydroxypropan-2-yl)-5,6,7,8-tetrahydroimidazo[1,5-a]pyrazine-7-carbonyl)-1H-indazole-6-carbonitrile], in assay [1], the IC50 was under 3 nM and the inhibition at 0.003 µM is 55%. Also, in assay [2], the IC50 was found to be 5 nM.

Turning to `C[C@H]1CN(C(=O)c2c3c(F)cc(F)cc3nn2C)Cc2cnc([C@@](C)(O)C(F)(F)F)n21` [Example 6], the IC50 in assay [1] and in assay [2] was 11 nM throughout.

As to `C[C@H]1CN(C(=O)c2nn(C)c3cc(F)cc(F)c23)Cc2cnc([C@@](C)(O)C(F)(F)F)n21` [Example 7], the IC50 in assay [1] was determined as 8 nM; in assay [2] it was 10 nM.

As to `C[C@H]1CN(C(=O)c2cnc3ccc(F)cn23)Cc2cnc([C@@](C)(O)C(F)(F)F)n21` [Example 8], the IC50 in assay [1] came out at 49 nM; in assay [2] it was 34 nM.

Turning to `C[C@H]1CN(C(=O)c2c3cc(F)c(F)cc3nn2C)Cc2cnc([C@@](C)(O)C(F)(F)F)n21` [Example 9, (5,6-difluoro-2-methyl-2H-indazol-3-yl) ((S)-5-methyl-3-((R)-1,1,1-trifluoro-2-hydroxypropan-2-yl)-5,6-dihydroimidazo[1,5-a]pyrazin-7(8H)-yl)methanone], the values for the IC50 in assay [1] and in assay [2] were 7 nM and 11 nM, respectively.

As for `C[C@H]1CN(C(=O)c2nn(C)c3cc(F)c(F)cc23)Cc2cnc([C@@](C)(O)C(F)(F)F)n21` [Example 10, (5,6-difluoro-1-methyl-1H-indazol-3-yl)((S)-5-methyl-3-((R)-1,1,1-trifluoro-2-hydroxypropan-2-yl)-5,6-dihydroimidazo[1,5-a]pyrazin-7(8H)-yl)methanone], the IC50 in assay [1] was 9 nM; in assay [2] it was 13 nM.

Take `C[C@H]1CN(C(=O)c2ccc3c(c2)OC(F)(F)O3)Cc2cnc([C@@](C)(O)C(F)(F)F)n21` [Example 11, (2,2-difluorobenzo[d][1,3]dioxol-5-yl)((S)-5-methyl-3-((R)-1,1,1-trifluoro-2-hydroxypropan-2-yl)-5,6-dihydroimidazo[1,5-a]pyrazin-7(8H)-yl)methanone]: the IC50 turned out to be 14 nM in assay [1] and 15 nM in assay [2].

As for `C[C@H]1CN(C(=O)c2ccc3nn(C)cc3c2)Cc2cnc([C@@](C)(O)C(F)(F)F)n21` [Example 12], the IC50 in assay [1] stood at 8 nM; in assay [2] it was 10 nM.

As for `C[C@H]1CN(C(=O)c2cc3ccccc3o2)Cc2cnc([C@@](C)(O)C(F)(F)F)n21` [Example 13], the IC50 was found to be 29 nM in assay [1] and 36 nM in assay [2].

With `C[C@H]1CN(C(=O)c2cc(C3CC3)nn2C)Cc2cnc([C@@](C)(O)C(F)(F)F)n21` [Example 14], the concentration for half-maximal inhibition (IC50) in assay [1] and in assay [2] was under 3 nM throughout. Besides, the inhibition at 0.003 µM in assay [1] is 68%. Also, the “hPDHK2 inhibitory rate at the lowest concentration of the test compound” value in assay [2] (lowest concentration of the test compound in the assay (<3 nmol/L), shown when IC50 value could not be calculated) is on record as 57%.
